Reference: patent publication US3962282A, “Juvenile hormone mimics” (priority 1974, dated 1976)
“And” between values parts separate entries of the source, which are not always exact repeats. Equal entries are not always repeated.

Key:
Tenebrio molitor pupae = experiment: topical application to Tenebrio molitor pupae, maturation inhibition; type: in vivo; details: rating scale 0-4
Summary of the method: (§1)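 Compounds applied topically, 1 μL acetone solution at 10%, 1% or 0.5%, to ten specimens per insect per concentration, alongside acetone and untreated controls; scored after about 8–10 days. Juvenile/adult characteristics rated 0–3 (Tenebrio 0–4), ≥2 meaning unable to reproduce; unreported specimens died during metamorphosis.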

[1] = tested on: Housefly (Musca domestica); experiment: housefly rearing diet test, percent adult emergence; type: in vivo
Experimental: Test compounds were mixed with the rearing diet of houseflys at various levels. The prepared diet was then placed in an 8 oz. drinking cup. Three cups were prepared for each treatment level and three control cups. Housefly eggs (Musca domestica) were placed in each cup and they were maintained at 28°C. for 1 week. Fifty pupae were then removed from each cup and placed in a petri dish. After the control pupae had emerged into adults, the percent emergence in each dish was recorded. The test compounds used were 7,8-epoxy-4-ethyl-8-methyl-1-(3,4-methylenedioxyphenyl)-3-decene, 4,8-dimetyl-1-(3,4-methylenedioxyphenyl)-2,6-nonadiene and 2,6-dichloro-2,6-dimethyl-9-(3,4-methylenedioxyphenyl)nonane.

aphid nymphs = experiment: application to aphid nymphs in acetone; type: in vivo, Aphis gossypi; details: 3 days
Experimental: In another test, female aphids were placed on young squash plants and allowed to produce young for 24 hours. After 24 hours, all adult aphids were removed from the plants and the young were maintained on the plants for an additional 48-hour period. This gave an aphid nymph population having an age of 48 to 72 hours. To each nymph was applied […]. of a 10 percent, 1 percent, or 0.5 percent solution of 2.6- dimethyl-9-(3,4-methylenedioxyphenyl)-2,6-nonadiene or 7,8-epoxy-4-ethyl-8-methyl-1-(3,4-methylenedioxyphenyl)-3-decene in acetone and the aphid nymphs were transferred to new squash plants and observed for possible effects. Ten nymphs were treated with each concentration of each compound and 10 were treated with acetone alone while 10 were not treated to serve as controls. […] There was only one dead nymph treated with acetone alone and one dead nymph in the nontreated controls.

Mexican bean beetle = experiment: topical application to Mexican bean beetle, fourth larval stage, maturation inhibition; type: in vivo; details: rating scale 0-3
Summary of the method: as §1

[2] = tested on: Melon aphids (Aphis gossypi); experiment: melon aphids on dipped squash plants; type: in vivo; details: 200 ppm, six days
Experimental: Young squash plants were dipped for 30 seconds in aqueous solutions containing 200, 100, and 50 ppm. of 2.6-dimethyl-9-(3,4-methylenedioxyphenyl)-2,6-nonadiene. Three plants were treated at each concentration and three plants were used as controls. After the plants had dried, ten adult aphids (Aphis gossypi) were placed on each plant and allowed to feed. The plants were maintained under laboratory conditions. Twenty-four hours after they were placed on the plants, all adults were removed, leaving young nymphs. Six days after treatment, the total number of aphids on each plant was determined.

[3] = tested on: cockroach nymphs (Blattella germanica); experiment: German cockroach nymphs in treated glass jars; type: in vivo; details: for reproduction: four months
Experimental: Test jars were prepared by adding 2 ml. of an acetone solution containing 10 mg., 20 mg., or 100 mg. of 2,6-dimethyl-9-(3,4-methylenedioxyphenyl)-2,6-nonadiene to 1 gallon glass jars and allowing the acetone to evaporate. The jars were equipped with watering bottles, food, and paper towels. There were two jars for each rate of test compound and two jars for nontreated controls. To each jar were added 20 40-day-old cockroach nymphs (Blattella germanica). […] Thus, the nonadiene at 100 mg. had prevented reproduction for 4 months.

milkweed bug = experiment: topical application to milkweed bug, fourth nymphal stage, maturation inhibition; type: in vivo; details: rating scale 0-3
Summary of the method: as §1

[4] = tested on: Aedes aegypti mosquito larvae; experiment: mosquito larvae in aqueous solutions, adult emergence; type: in vivo; details: for number of adults, Jar 1 Dead / number of adults, Jar 1 Living / number of adults, Jar 2 Dead / number of adults, Jar 2 Living: 13 days
Experimental: Two compounds, 7,8-epoxy-4-ethyl-8-methyl-1-(3,4-methylenedioxyphenyl)-3-decene and 2,6-diemthyl-9-(3,4-methylenedioxyphenyl)-2,6-nonadiene, were tested against Aedes aegypti mosquito larvae in aqueous solutions at concentrations of 10, 5, 2.5. 1.25 and 0.625 ppm. each. Ninety milliliters of each solution were placed in a pint jar and 30 five-day-old mosquito larvae were added to each jar. Two tests were run at each concentration and control tests employing only solvent with no compound were also run. Food was added to each jar, the jars were covered with cloths, and maintained at 29°C. until adults emerged in the control jars. The number of adults in the test jars was determined.

German cockroach nymphs = experiment: topical application to 50-day-old German cockroach nymphs; type: in vivo, Blattella germanica
Description: In another test, the nonadiene was applied topically to 50-day-old German cockroach nymphs. The compound was applied in acetone as a […], or 0.5 percent solution. Acetone controls and nontreated controls were also run. The roaches were then maintained in the laboratory until the controls reproduced. […] The 1 percent and 0.5 percent treatments did reproduce.

Structure (SMILES): CC(C)=CCCC(C)=CCCc1ccc2c(c1)OCO2 [2,6-dimethyl-9-(3,4-methylenedioxyphenyl)-2,6-nonadiene]
- number of specimens in rating 4 (Tenebrio molitor pupae; 0.5%): 9 specimens
- number of specimens in rating 4 (Tenebrio molitor pupae; 1%): 10 specimens
- number of specimens in rating 4 (Tenebrio molitor pupae; 10%): 10 specimens
- percent adult emergence, Cup 1 ([1]; 100 ppm in diet): 90%
- percent adult emergence, Cup 2 ([1]; 100 ppm in diet): 30%
- percent adult emergence, Cup 3 ([1]; 100 ppm in diet): 10%
- control ([1]; 500 ppm): 100%
- percent adult emergence, Cup 1 ([1]; 500 ppm in diet): 0%
- percent adult emergence, Cup 2 ([1]; 500 ppm in diet): 0%
- percent adult emergence, Cup 3 ([1]; 500 ppm in diet): 0%
- dead nymphs (aphid nymphs; 0.5 percent): nine of the ten
- dead nymphs (aphid nymphs; 1 percent): all of the nymphs
- dead nymphs (aphid nymphs; 10 percent): all of the nymphs
- number of specimens in rating 3 (Mexican bean beetle; 0.5%): 9 specimens
- number of specimens in rating 3 (Mexican bean beetle; 1%): 10 specimens
- number of specimens in rating 3 (Mexican bean beetle; 10%): 1 specimens
- number of aphids per plant, Total [2]: 15 and 13 and 22
- state of adults and nymphs ([3]; 10 mg, about 2 1/2 months): normal adults and newly hatched nymphs
- state of adults and nymphs ([3]; 20 mg, about 2 1/2 months): normal adults and newly hatched nymphs
- duration of prevented reproduction ([3]; 100 mg): 4 months
- newly hatched nymphs ([3]; 100 mg, about 2 1/2 months): did not contain newly hatched nymphs
- wings of adults ([3]; 100 mg, about 2 1/2 months): all adults in the jars had deformed wings
- reproduction ([3]; 100 mg): no reproduction
- reproduction ([3]; lower rate jars (10 and 20 mg)): large numbers of newly hatched nymphs
- number of specimens in rating 3 (milkweed bug; 0.5%): 10 specimens
- number of specimens in rating 3 (milkweed bug; 1%): 10 specimens
- number of specimens in rating 3 (milkweed bug; 10%): 5 specimens
- number of adults, Jar 1 Dead ([4]; 0.625 ppm): 21
- number of adults, Jar 1 Living ([4]; 0.625 ppm): 1
- number of adults, Jar 2 Dead ([4]; 0.625 ppm): 21
- number of adults, Jar 2 Living ([4]; 0.625 ppm): 0
- number of adults, Jar 1 Dead ([4]; 1.25 ppm): 1
- number of adults, Jar 1 Living ([4]; 1.25 ppm): 3
- number of adults, Jar 2 Dead ([4]; 1.25 ppm): 10
- number of adults, Jar 2 Living ([4]; 1.25 ppm): 1
- number of adults, Jar 1 Dead ([4]; 2.5 ppm): 0
- number of adults, Jar 1 Living ([4]; 2.5 ppm): 0
- number of adults, Jar 2 Dead ([4]; 2.5 ppm): 1
- number of adults, Jar 2 Living ([4]; 2.5 ppm): 0
- number of adults, Jar 1 Dead ([4]; 5 ppm): 0
- number of adults, Jar 1 Living ([4]; 5 ppm): 0
- number of adults, Jar 2 Dead ([4]; 5 ppm): 0
- number of adults, Jar 2 Living ([4]; 5 ppm): 0
- number of adults, Jar 1 Dead ([4]; 10 ppm): 0
- number of adults, Jar 1 Living ([4]; 10 ppm): 0
- number of adults, Jar 2 Dead ([4]; 10 ppm): 0
- number of adults, Jar 2 Living ([4]; 10 ppm): 0
- control ([4]; at concentrations as low as 2.5 ppm): 100%
- live adults in the jars ([4]; nonadiene at 10, 5, and 2.5 ppm, decene at any concentration): never any live adults
- reproduction (German cockroach nymphs; 0.5 percent): did reproduce
- reproduction (German cockroach nymphs; 1 percent): did reproduce
- reproduction (German cockroach nymphs; 10 percent solution): did not reproduce
- wing formation (German cockroach nymphs; 10 percent solution): normal wing formation
